Data from patent US20250171423A1, “PHARMACEUTICAL COMPOUNDS FOR THE TREATMENT OF COMPLEMENT MEDIATED DISORDERS” (Achillion Pharmaceuticals, Inc., priority 2020, published 2025).

Target: T1, Human complement C1s enzyme (Homo sapiens, UniProt P09871)
T1 construct: purified from human serum, Complement Technology, Inc; purchased Complement Technology, Inc; host or cells: human serum
T1 sequence (P09871 438-688 limits assumed): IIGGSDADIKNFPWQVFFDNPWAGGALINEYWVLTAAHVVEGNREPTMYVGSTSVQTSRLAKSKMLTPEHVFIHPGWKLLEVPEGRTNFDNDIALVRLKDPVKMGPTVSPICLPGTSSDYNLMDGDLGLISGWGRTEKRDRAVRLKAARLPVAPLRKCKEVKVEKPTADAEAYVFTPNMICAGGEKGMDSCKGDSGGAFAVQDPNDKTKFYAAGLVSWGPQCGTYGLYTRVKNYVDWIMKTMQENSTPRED
T1 sequence (P09871 16-437 partner limits assumed): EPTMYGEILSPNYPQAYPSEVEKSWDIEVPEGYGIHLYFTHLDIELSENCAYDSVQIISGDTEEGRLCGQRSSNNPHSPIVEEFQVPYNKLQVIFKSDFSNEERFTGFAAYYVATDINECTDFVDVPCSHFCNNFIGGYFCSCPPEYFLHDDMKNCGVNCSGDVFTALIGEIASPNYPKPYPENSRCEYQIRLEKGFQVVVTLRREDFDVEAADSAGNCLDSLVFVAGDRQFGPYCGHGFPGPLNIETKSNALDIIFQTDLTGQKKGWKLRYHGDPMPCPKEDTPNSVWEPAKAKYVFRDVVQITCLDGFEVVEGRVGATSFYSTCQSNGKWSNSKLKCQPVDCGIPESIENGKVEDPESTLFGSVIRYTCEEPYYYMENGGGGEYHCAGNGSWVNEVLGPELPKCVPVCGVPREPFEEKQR
Assay: Human C1s Enzyme Assay
Format: biochemical
Details: human C1s 1.16 nM, 5 min preincubation, substrate Z-L-Lys-SBzl 100 μM, A405; read-out: C1s Protease Activity
Outline: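 IC50 values were fitted by nonlinear regression to rates measured as A405 every 30 s for 30 min. The thioester substrate Z-L-Lys-SBzl and Ellman's reagent were each at 100 μM. Serum-derived C1s at 1.16 nM final had 5 min of room-temperature preincubation with compound (pH 7.5 Tris buffer, 1 M NaCl).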

Structure (SMILES)	IC50 [nM]
N=C(N)c1csc(CNC(=O)[C@@H]2C[C@@H](OC3CC3)CN2C(=O)CNC(=O)c2ccc(Oc3ccccc3)cc2)c1 [Compound 110, (2S,4R)-N-((4-carbamimidoylthiophen-2-yl)methyl)-4-cyclopropoxy-1-((4-phenoxy-benzoyl)glycyl)pyrrolidine-2-carboxamide]	< 100
C[C@@H](NC(=O)[C@@H]1C[C@@H](Oc2ccccc2)CN1C(=O)CNC(=O)CCCOc1ccccc1)c1cc(C(=N)N)cs1 [Compound 111, (2S,4R)-N-((R)-1-(4-carbamimidoylthiophen-2-yl)ethyl)-4-phenoxy-1-((4-phenoxy-butanoyl)glycyl)pyrrolidine-2-carboxamide]	< 100
C[C@@]12C[C@@H]1N(C(=O)CNC(=O)c1ccc(Oc3ccccc3)cc1)[C@H](C(=O)N1CCc3c(C(=N)N)csc3C1)C2 [Compound 112, N-(2-((1S,3S,5S)-3-(3-carbamimidoyl-4,5,6,7-tetrahydrothieno[2,3-c]pyridine-6-carbonyl)-5-methyl-2-azabicyclo[3.1.0]hexan-2-yl)-2-oxoethyl)-4-phenoxybenzamide]	100 to 1000
CO[C@H]1[C@@H](C(=O)NCc2cc(C(=N)N)cs2)N(C(=O)CNC(=O)CCCOc2ccccc2)C[C@@H]1F [Compound 113, (2S,3S,4S)-N-((4-carbamimidoylthiophen-2-yl)methyl)-4-fluoro-3-methoxy-1-((4-phenoxybutanoyl)glycyl)pyrrolidine-2-carboxamide]	100 to 1000
C[C@@H](NC(=O)[C@@H]1CC2(CCCC2)CN1C(=O)CNC(=O)CCCOc1ccccc1)c1cc(C(=N)N)cs1 [Compound 114, (S)-N-((R)-1-(4-carbamimidoylthiophen-2-yl)ethyl)-2-((4-phenoxybutanoyl)glycyl)-2-azaspiro[4.4]nonane-3-carboxamide]	< 100
C[C@@H](NC(=O)[C@@H]1CC2(CN1C(=O)CNC(=O)CCCOc1ccccc1)OCCO2)c1cc(C(=N)N)cs1 [Compound 115, (S)-N-((R)-1-(4-carbamimidoylthiophen-2-yl)ethyl)-7-((4-phenoxybutanoyl)glycyl)-1,4-dioxa-7-azaspiro[4.4]nonane-8-carboxamide]	< 100
C[C@@H](NC(=O)[C@@H]1CC2(CC2)CN1C(=O)CNC(=O)CCCOc1ccccc1)c1cc(C(=N)N)cs1 [Compound 116, (6S)-N-[(1R)-1-(4-carbamimidoylthiophen-2-yl)ethyl]-5-[2-(4-phenoxybutanamido)acetyl]-5-azaspiro[2.4]heptane-6-carboxamide]	< 100
C[C@@]12C[C@@H]1N(C(=O)CNC(=O)CCCOC1CCCCC1)[C@H](C(=O)NCc1cc(C(=N)N)cs1)C2 [Compound 117]	< 100
Cc1cccc(O[C@@H]2C[C@@H](C(=O)N[C@H](C)c3cc(C(=N)N)cs3)N(C(=O)CNC(=O)CCCOc3ccccc3)C2)c1 [Compound 118, (2S,4R)-N-((R)-1-(4-carbamimidoylthiophen-2-yl)ethyl)-1-((4-phenoxybutanoyl)-glycyl)-4-(m-tolyloxy)pyrrolidine-2-carboxamide]	< 100
C[C@@H](NC(=O)[C@@H]1C[C@@H](Oc2ccc(F)cc2)CN1C(=O)CNC(=O)CCCOc1ccccc1)c1cc(C(=N)N)cs1 [Compound 119, (2S,4R)-N-((R)-1-(4-carbamimidoylthiophen-2-yl)ethyl)-4-(4-fluorophenoxy)-1-((4-phenoxybutanoyl)glycyl)pyrrolidine-2-carboxamide]	< 100
C[C@@H](NC(=O)[C@@H]1C[C@]2(C)C[C@@H]2N1C(=O)CNC(=O)CCCOc1ccc(F)cc1)c1cc(C(=N)N)cs1 [Compound 121, (1S,3S,5S)-N-((R)-1-(4-carbamimidoylthiophen-2-yl)ethyl)-2-((4-(4-fluorophenoxy)butanoyl)glycyl)-5-methyl-2-azabicyclo[3.1.0]hexane-3-carboxamide]	100 to 1000
C[C@@H](NC(=O)[C@@H]1C[C@]2(C)C[C@@H]2N1C(=O)CNC(=O)CCCOc1ccccc1)c1cc(C(=N)N)cs1 [Compound 122, (1S,3S,5S)-N-((R)-1-(4-carbamimidoylthiophen-2-yl)ethyl)-5-methyl-2-((4-phenoxy-butanoyl)glycyl)-2-azabicyclo[3.1.0]hexane-3-carboxamide]	< 100
C[C@@H](NC(=O)[C@@H]1C[C@@H](OC(F)F)CN1C(=O)CNC(=O)CCCOc1ccccc1)c1cc(C(=N)N)cs1 [Compound 123, (2S,4R)-N-((R)-1-(4-carbamimidoylthiophen-2-yl)ethyl)-4-(difluoromethoxy)-1-((4-phenoxybutanoyl)glycyl)pyrrolidine-2-carboxamide]	< 100
CC1(C)SCN(C(=O)CNC(=O)CCCOc2ccccc2)[C@@H]1C(=O)NCc1cc(C(=N)N)cs1 [Compound 124, (R)-N-((4-carbamimidoylthiophen-2-yl)methyl)-5,5-dimethyl-3-((4-phenoxybutanoyl)glycyl)thiazolidine-4-carboxamide]	100 to 1000
C[C@@H](NC(=O)[C@@H]1C[C@@H](S(C)(=O)=O)CN1C(=O)CNC(=O)CCCOc1ccccc1)c1cc(C(=N)N)cs1 [Compound 125, (2S,4R)-N-((R)-1-(4-carbamimidoylthiophen-2-yl)ethyl)-4-(methylsulfonyl)-1-((4-phenoxybutanoyl)glycyl)pyrrolidine-2-carboxamide]	< 100
C[C@@H](C(=O)NCc1cc(C(=N)N)cs1)N(C)C(=O)CNC(=O)c1ccc(Oc2ccccc2)cc1 [Compound 126, (S)-N-(2-((1-(((4-carbamimidoylthiophen-2-yl)methyl)amino)-1-oxopropan-2-yl)(methyl)amino)-2-oxoethyl)-4-phenoxybenzamide]	< 100
C[C@@]12C[C@@H]1N(C(=O)CNC(=O)c1ccc(Oc3ccccc3)cc1)[C@H](C(=O)N(O)Cc1cc(C(=N)N)cs1)C2 [Compound 127, (1S,3S,5S)-N-((4-carbamimidoylthiophen-2-yl)methyl)-N-hydroxy-5-methyl-2-((4-phenoxybenzoyl)glycyl)-2-azabicyclo[3.1.0]hexane-3-carboxamide]	> 1000
N=C(N)c1csc(CNC(=O)[C@@H]2[C@H](O)[C@@H](F)CN2C(=O)CNC(=O)CCCOc2ccccc2)c1 [Compound 128, (2S,3S,4S)-N-((4-carbamimidoylthiophen-2-yl)methyl)-4-fluoro-3-hydroxy-1-((4-phenoxybutanoyl)glycyl)pyrrolidine-2-carboxamide]	< 100
CN(C)C[C@@]1(F)C[C@@H](C(=O)NCc2cc(C(=N)N)cs2)N(C(=O)CNC(=O)CCCOc2ccccc2)C1 [Compound 129, (2S,4S)-N-[(4-carbamimidoylthiophen-2-yl)methyl]-4-[(dimethylamino)methyl]-4-fluoro-1-[2-(4-phenoxybutanamido)acetyl]pyrrolidine-2-carboxamide]	< 100
C[C@@H](NC(=O)[C@@H]1C[C@]2(C)C[C@@H]2N1C(=O)CNC(=O)CCCCc1ccccc1)c1cc(C(=N)N)cs1 [Compound 130, (1S,3S,5S)-N-((R)-1-(4-carbamimidoylthiophen-2-yl)ethyl)-5-methyl-2-((5-phenyl-pentanoyl)glycyl)-2-azabicyclo[3.1.0]hexane-3-carboxamide]	< 100
Cc1ccc(O[C@@H]2C[C@@H](C(=O)N[C@H](C)c3cc(C(=N)N)cs3)N(C(=O)CNC(=O)CCCOc3ccccc3)C2)cc1 [Compound 131, (2S,4R)-N-((R)-1-(4-carbamimidoylthiophen-2-yl)ethyl)-1-((4-phenoxybutanoyl)glycyl)-4-(p-tolyloxy)pyrrolidine-2-carboxamide]	< 100
C[C@@]12C[C@@H]1N(C(=O)CNC(=O)c1cc3cc(Oc4ccccc4)ccc3o1)[C@H](C(=O)NCc1cc(C(=N)N)cs1)C2 [Compound 132, (1S,3S,5S)-N-((4-carbamimidoylthiophen-2-yl)methyl)-5-methyl-2-((5-phenoxybenzofuran-2-carbonyl)glycyl)-2-azabicyclo[3.1.0]hexane-3-carboxamide]	< 100
C[C@@H](NC(=O)[C@@H]1CC2(CN1C(=O)CNC(=O)CCCOc1ccccc1)OCCO2)c1ccc(C(=N)N)s1 [Compound 133, (S)-N-((R)-1-(5-carbamimidoylthiophen-2-yl)ethyl)-7-((4-phenoxybutanoyl)glycyl)-1,4-dioxa-7-azaspiro[4.4]nonane-8-carboxamide]	< 100
C[C@@]12C[C@@H]1N(CCNC(=O)CCCOc1ccccc1)[C@H](C(=O)NCc1cc(C(=N)N)cs1)C2 [Compound 134, (1S,3S,5S)-N-((4-carbamimidoylthiophen-2-yl)methyl)-5-methyl-2-(2-(4-phenoxybutanamido)ethyl)-2-azabicyclo[3.1.0]hexane-3-carboxamide]	> 1000
N=C(N)c1csc(CNC(=O)[C@@H]2C[C@]3(CN4CCOCC4)C[C@@H]3N2C(=O)CNC(=O)CCCOc2ccccc2)c1 [Compound 135, (1S,3S,5S)-N-((4-carbamimidoylthiophen-2-yl)methyl)-5-(morpholinomethyl)-2-((4-phenoxybutanoyl)glycyl)-2-azabicyclo[3.1.0]hexane-3-carboxamide]	< 100
